The results in this text go back to US20180238860A1, “INDIVIDUAL METHOD PREDICTIVE OF THE DNA-BREAKING GENOTOXIC EFFECTS OF CHEMICAL OR BIOCHEMICAL AGENTS” (priority 2015, published 2018).

Holding throughout (type): cell-based, human
The subject of data set [1] is HMEC cells. In words: pH2AX foci 24 h after contacting, Table 4 lower part (HMEC endothelial cells). As to conditions: for pH2AX: line cell blank (below Hasp), 24 hours after contacting. The protocol:
(§1) In one embodiment, on receipt, the tissue sample (typically the biopsy) is established in the form of an amplifiable cell line without a viral or chemical transformation agent according to an ancillary procedure well known to culture laboratories, as underlined by the publication of Elkind et al. “The radiobiology of cultured mammalian cell”, Gordon and Breach (1967). Once the number of cells is sufficient (typically after 1 to 3 weeks), the first experiments are carried out using the process according to the invention. A cell sample is prepared: The cells are inoculated on glass coverslips in Petri dishes. A portion of these coverslips are contaminated with metals or pesticides or any other DNA-breaking chemical or biochemical agent at different concentrations. A further portion is not contaminated; it represents the spontaneous state. During contamination, the cells remain in the culture incubator at 37° C.
(§2) For the contaminated cells, characteristics are acquired corresponding to the state after an incubation time with the DNA-breaking chemical or biochemical agent. Said characteristics are represented by foci corresponding to the marker pH2AX. The cells on glass coverslips are then fixed, lysed and hybridized. The following procedure, known per se (Bodgi et al, “A single formula to describe radiation-induced protein relocalization: towards a mathematical definition of individual radiosensitivity”, J Theor Biol. 21 p 333:135-45.2013):
(§3) the cells are fixed in 3% paraformaldehyde and 2% sucrose for 15 minutes at ambient temperature and permeabilized in 20 mM HEPES buffer solution (4-(2-hydroxyethyl)-1-piperazine ethane sulfonic acid) at pH 7.4, 50 mM NaCl, 3 mM MgCl2, 300 mM sucrose, 0.5% Triton X-100 (a non-ionic surfactant having the formula t-Oct-C6H4-(OCH2CH2)×OH where x=9-10, CAS No. 9002-93-1, supplied for example by Sigma Aldrich) for 3 minutes. The glass coverslips are then washed in phosphate buffer saline (known as the acronym PBS) before immunological staining. The incubation took place for 40 min at 37° C. in PBS supplemented with 2% bovine serum albumin (known as the acronym BSA or fraction V, supplied for example by Sigma Aldrich) and was followed by a wash with PBS. Anti-pH2AX primary antibodies are used at a concentration of 1:800. The incubations with anti-mouse FITC or anti-rabbit TRITC secondary antibodies (1:100, supplied by Sigma Aldrich) were performed at 37° C. in 2% BSA for 20 minutes. Glass coverslips were treated with Vectashield™ containing DAPI (4,6-Diamidino-2-phenylindole) to label the nucleus. Staining with DAPI also makes it possible, indirectly, to determine the number of cells in phase G1 (nuclei with homogenous DAPI staining), in phase S (nuclei with numerous pH2AX foci), in phase G2 (nuclei with heterogeneous DAPI staining) and metaphases (visible chromosomes).
(§4) The results are acquired using these coverslips on an immunofluorescence microscope (Olympus model for example). The reading may be direct (typically by counting the foci on at least 50 cells in G0/G1 for each point) or using dedicated image analysis software, or on an automated microscope; preferably the software or automated microscope methods are calibrated with manual determinations.
(§5) The tables hereinafter summarize the results of numerous experiments which were carried out as described in the “Detailed description” section above.
(§6) In tables 3 and 4, “pH2AX” corresponds to the mean number of nuclear foci obtained with the marker pH2AX, 24 hours after contacting the cell sample with the chemical agent at the concentration C (NpH2AX(24 h, C)), and where “Micronuclei” corresponds to the mean number of micronuclei observed per 100 cells 24 hours after contacting the cell sample with the chemical agent at the concentration C(NMN(24 h, C)).

Data set [2] has as its system HMEC cells. In words: Micronuclei per 100 cells 24 h after contacting, Table 4 lower part (HMEC). As to conditions: line cell blank (below Hasp). The protocol: as §1, §3
(§7) Counterstaining with DAPI (a DNA marker known to those skilled in the art) makes it possible to locate the nucleus to situate the cytoplasmic or nuclear location to quantify the micronuclei, which are complementary cell markers to the data on the foci.
as §5, §6

Data set [3] concerns Ha (astrocyte cells). In words: pH2AX foci 24 h after contacting, Ha astrocyte cells. As to conditions: for pH2AX: Ha, 24 hours after contacting. The protocol:
as §1, §2, §3, §4, §5
(§8) In tables 3 and 4, “pH2AX” corresponds to the mean number of nuclear foci obtained with the marker pH2AX, 24 hours after contacting the cell sample with the chemical agent at the concentration C (NpH2AX(24 h, C)), and where “Micronuclei” corresponds to the mean number of micronuclei observed per 100 cells 24 hours after contacting the cell sample with the chemical agent at the concentration C(NMN(24 h, C)). […]

In data set [4] the test system is Ha (astrocyte cells). The data set is described as follows: Micronuclei per 100 cells 24 h after contacting, Ha astrocyte cells. The protocol:
as §1, §3, §7, §5, §6
(§9) Table 4 presents a detection of number of pH2AX foci and number of micronuclei 24 hours after contacting control nervous system cell lines Ha (astrocyte cells), Hah (hippocampus astrocyte cells) and Hasp (spinal cord astrocyte cells) with a metallic compound (AlCl3, Cu, CuCl2, CuSO4, Pb(NO3)2, CdCl2, Cd-acetate or Cd-acetate-citrate) according to the concentration of said metallic compound used.

Data set [5] has as its system Hah (hippocampus astrocyte cells). In words: pH2AX foci 24 h after contacting, Hah hippocampus astrocyte cells. The protocol:
as §1, §2, §3, §4, §5, §8

For data set [6] the test system is unchanged. The data set is described as follows: Micronuclei per 100 cells 24 h after contacting, Hah. The protocol: as §1, §3, §7, §5, §6, §9
Data set [7] deals with Hasp (spinal cord astrocyte cells). In words: pH2AX foci 24 h after contacting, Hasp spinal cord astrocyte cells. On the procedure:
as §1, §2, §3, §4, §5, §8

The test system is the same in data set [8]. In words: Micronuclei per 100 cells 24 h after contacting, Hasp. On the procedure:
as §1, §3, §7, §5, §6, §9

As to `CC(=O)[O-].CC(=O)[O-].[Cd+2]` [Cd-acetate], the pH2AX with HMEC cells [1] (10 μM) is 5 foci; in the data set with HMEC cells [1] (30 μM) it was 5.5 foci; with HMEC cells [1] (100 μM), 7 foci. The Micronuclei worked out at 5 per 100 cells in the data set with HMEC cells [2] (10 μM), 10 per 100 cells in the data set on HMEC cells [2] (30 μM) and 10 per 100 cells in the data set on HMEC cells [2] (100 μM).
For `O=S(=O)([O-])[O-].[Cu+2]` [CuSO4], the pH2AX is on record as 1.9 foci in the data set with HMEC cells [1] (3 μM); 2.3 foci in the data set on HMEC cells [1] (10 μM); 3.4 foci in the data set on HMEC cells [1] (30 μM); 6.4 foci with HMEC cells [1] (100 μM); 20.1 foci in the data set with HMEC cells [1] (300 μM); 30.2 foci in the data set on HMEC cells [1] (1000 μM). Also, the Micronuclei with HMEC cells [2] (3 μM) worked out at 3 per 100 cells; with HMEC cells [2] (10 μM), 5 per 100 cells; in the data set with HMEC cells [2] (30 μM), 4.7 per 100 cells; in the data set with HMEC cells [2] (100 μM), 5.3 per 100 cells; in the data set with HMEC cells [2] (300 μM), 9.3 per 100 cells; with HMEC cells [2] (1000 μM), 4 per 100 cells.
As for `[Cu]` [Cu], the pH2AX worked out at 0.3 foci in the data set with Ha (astrocyte cells) [3] (10 μM); 0.62 foci in the data set with Ha (astrocyte cells) [3] (30 μM); 2.55 foci in the data set with Ha (astrocyte cells) [3] (100 μM); 0 foci in the data set with Ha (astrocyte cells) [3] (300 μM); 0 foci with Ha (astrocyte cells) [3] (1000 μM); 1.01 foci in data set [5] (10 μM). The pH2AX is 1.87 foci in data set [5] (30 μM); 2.62 foci in data set [5] (100 μM); 5.45 foci in data set [5] (300 μM); 6.61 foci in data set [5] (1000 μM); 0.29 foci in data set [7] (10 μM); 0.64 foci in data set [7] (30 μM). The pH2AX in data set [7] (100 μM) turned out to be 1.13 foci; in data set [7] (300 μM), 1.78 foci; in data set [7] (1000 μM), 2.36 foci. The Micronuclei is on record as 4 per 100 cells in the data set on Ha (astrocyte cells) [4] (10 μM); 5 per 100 cells in the data set on Ha (astrocyte cells) [4] (30 μM); 13 per 100 cells in the data set on Ha (astrocyte cells) [4] (100 μM); 20 per 100 cells with Ha (astrocyte cells) [4] (300 μM); 50 per 100 cells with Ha (astrocyte cells) [4] (1000 μM); 6 per 100 cells in data set [6] (10 μM). For the same compound, the Micronuclei in data set [6] (30 μM) is listed as 10.7 per 100 cells; in data set [6] (100 μM), 20.7 per 100 cells; in data set [6] (300 μM) it was 46.7 per 100 cells; in data set [6] (1000 μM) it was 73.3 per 100 cells; in data set [8] (10 μM), 4 per 100 cells; in data set [8] (30 μM) it was 7 per 100 cells. Also, the Micronuclei worked out at 9 per 100 cells in data set [8] (100 μM), 10 per 100 cells in data set [8] (300 μM) and 16 per 100 cells in data set [8] (1000 μM).
Regarding `[Cl][Al]([Cl])[Cl]` [AlCl3], the pH2AX is reported as 0.34 foci in the data set on Ha (astrocyte cells) [3] (3 μM); 0.88 foci in the data set on Ha (astrocyte cells) [3] (10 μM); 1.37 foci in the data set with Ha (astrocyte cells) [3] (30 μM); 2.18 foci in the data set on Ha (astrocyte cells) [3] (100 μM); 2.96 foci with Ha (astrocyte cells) [3] (300 μM); 6.04 foci with Ha (astrocyte cells) [3] (1000 μM). Besides, the pH2AX in data set [5] (3 μM) amounted to 0.07 foci; in data set [5] (10 μM), 0.68 foci; in data set [5] (30 μM), 0.83 foci; in data set [5] (100 μM), 1.22 foci; in data set [5] (300 μM), 1.77 foci; in data set [5] (1000 μM), 2.28 foci. In addition, the pH2AX in data set [7] (3 μM) is given as 0.84 foci; in data set [7] (10 μM) it was 0.46 foci; in data set [7] (30 μM), 0.74 foci; in data set [7] (100 μM), 2.15 foci; in data set [7] (300 μM), 1.7 foci; in data set [7] (1000 μM), 1.62 foci. For the same compound, the pH2AX in the data set with HMEC cells [1] (3 μM) is reported as 3.2 foci; in the data set on HMEC cells [1] (10 μM), 3.2 foci; with HMEC cells [1] (30 μM) it was 5.7 foci; with HMEC cells [1] (100 μM), 3.7 foci; in the data set with HMEC cells [1] (300 μM) it was 4.5 foci; with HMEC cells [1] (1000 μM), 9.9 foci. Further, the H2AX foci turned out to be 2 foci in the data set with Ha (astrocyte cells) [3] (astrocytes (HA cells) contaminated with 100 μM) and 3.7 foci in the data set with HMEC cells [1] (endothelial cells (HMEC cells), 100 μM). The Micronuclei with Ha (astrocyte cells) [4] (3 μM) is given as 10 per 100 cells; in the data set on Ha (astrocyte cells) [4] (10 μM), 15 per 100 cells; in the data set on Ha (astrocyte cells) [4] (30 μM), 16.7 per 100 cells; in the data set with Ha (astrocyte cells) [4] (100 μM) it was 46.7 per 100 cells; in the data set with Ha (astrocyte cells) [4] (300 μM), 56.7 per 100 cells; with Ha (astrocyte cells) [4] (1000 μM), 70 per 100 cells. The Micronuclei in data set [6] (3 μM) is recorded as 2 per 100 cells; in data set [6] (10 μM), 2 per 100 cells; in data set [6] (30 μM), 4 per 100 cells; in data set [6] (100 μM) it was 6 per 100 cells; in data set [6] (300 μM), 20 per 100 cells; in data set [6] (1000 μM), 30 per 100 cells. Also, the Micronuclei in data set [8] (3 μM) is 2 per 100 cells; in data set [8] (10 μM), 4 per 100 cells; in data set [8] (30 μM), 4 per 100 cells; in data set [8] (100 μM) it was 7.3 per 100 cells; in data set [8] (300 μM) it was 8.7 per 100 cells; in data set [8] (1000 μM), 13 per 100 cells. For the same compound, the Micronuclei in the data set on HMEC cells [2] (3 μM) was 1.75 per 100 cells; with HMEC cells [2] (10 μM), 3.75 per 100 cells; with HMEC cells [2] (30 μM), 5 per 100 cells; in the data set with HMEC cells [2] (100 μM), 4.33 per 100 cells; with HMEC cells [2] (300 μM) it was 7.33 per 100 cells; with HMEC cells [2] (1000 μM) it was 11.5 per 100 cells.
On to `[Cl][Cu][Cl]` [CuCl2], for which the pH2AX in the data set on HMEC cells [1] (3 μM) worked out at 1.6 foci; in the data set on HMEC cells [1] (10 μM) it was 1.9 foci; with HMEC cells [1] (30 μM), 1.6 foci; in the data set with HMEC cells [1] (100 μM) it was 1.5 foci; in the data set with HMEC cells [1] (300 μM) it was 5.3 foci; in the data set on HMEC cells [1] (1000 μM), 21.4 foci. Moreover, the Micronuclei in the data set on HMEC cells [2] (3 μM) worked out at 4 per 100 cells; in the data set on HMEC cells [2] (10 μM), 6.7 per 100 cells; in the data set with HMEC cells [2] (30 μM), 5.3 per 100 cells; in the data set with HMEC cells [2] (100 μM), 6.7 per 100 cells; with HMEC cells [2] (300 μM), 7.3 per 100 cells; in the data set on HMEC cells [2] (1000 μM), 4 per 100 cells.
Regarding Cd-acetate-citrate, the values for the pH2AX with HMEC cells [1] (10 μM), in the data set on HMEC cells [1] (30 μM) and with HMEC cells [1] (100 μM) were 1 foci, 4.75 foci and 7 foci, respectively.
